Patent US12214036B2, “Combination therapy comprising AXL/MER and PD-1/PD-L1 inhibitors” (Incyte Corporation, priority 2020, dated 2025)

Assays:
parental BAF3 cells = test: Parental BAF3 cell proliferation assay (CellTiter-Glo); assay type: cell-based; details: Mus musculus, 48 hours, 2% FBS
From the text: To evaluate the cellular potency and selectivity within the TAM receptor family, mouse BAF3 cell lines with stable expression of AXL, MER, or TYRO3 were generated.
The cytoplasmic domain of AXL, MER, or TYRO3 fused with dimerization sequence and HA tag was cloned into a pMSCV (murine stem cell virus) vector with a puromycin-resistance marker to generate three constructs individually by electroporation into BAF3 cells. Single clones that were IL-3-independent and puromycin-resistant were selected and characterized. To evaluate effects on BAF3 cell proliferation, 1000 cells/well of BAF3, BAF3-AXL, BAF3 MER, or BAF3-TYRO3 cells were treated in the presence or absence of Compound 1 at various concentrations (10 concentration points with a three-fold dilution factor from the highest concentration of 10 μM) diluted in RPMI-1640 with 2% FBS for 48 hours in a 384-well plate. Cell viability was measured by ATP assay (CellTiter-Glo Assay, Promega, Madison, Wis.) according to the manufacturer's procedure. The data were converted to percent inhibition relative to DMSO control, and IC50 curves were fitted using GraphPad Prism software.

[1] = tested on: macrophage-mediated suppression of T-cell proliferation; test: Macrophage suppression of T-cell proliferation assay; assay type: cell-based, human
Protocol: To examine the functional activity of Compound 1, the effects on macrophage-mediated suppression of T-cell proliferation were evaluated.
Human PBMCs were isolated from the peripheral blood of healthy donors by density gradient centrifugation on Ficoll-Hypaque (GE Healthcare, Chicago, Ill.; #17-1440-02) followed by purification with anti-CD14 Microbeads (Miltenyi Biotec; #130-050-201). Isolated CD14^+ monocytes/macrophages were incubated with 100 ng/mL M-CSF (R&D Systems; #216-MC) and 50 ng/mL TGFβ1 (R&D Systems; #240-B) at 37° C. for 6 days; 100 μL/well of CD14^+ macrophages were seeded at 0.5×10^6 cells/mL in a 96-well round-bottomed culture plate (Costar; #3799) and treated with Compound 1 overnight at 37° C. CD4^+CD25^− effector T (Teff) cells were isolated using the Dynabeads regulatory CD4^+CD25^+ T-cell kit (Life Technologies; #11363D) and the Teff cells were labeled with carboxyfluorescein succinimidyl ester (CFSE) using the CellTrace CFSE Cell Proliferation kit (ThermoFisher Scientific; #C34554). […] Teff cells were analyzed by a flow cytometer (BD LSRFortessa X-20, BD Biosciences, San Jose, Calif.) and the cell-free supernatant was tested in the Luminex assay (Millipore; #HCYTOMAG-60K_38plex) to measure the concentrations of different cytokines and chemokines.

CTG-1861 tumors = test: PDX model CTG-1861 (gastrointestinal stromal tumor); assay type: in vivo; details: athymic nude mice
From the text: MBT-2 cells were obtained from the Japanese Collection of Research Bioresources Cell Bank and were maintained in DMEM supplemented with 10% FBS. MC38 cells were obtained from the NCI. 4T1 cells were obtained from ATCC and maintained in RPMI media supplemented with 10% FBS. For MBT-2 experiments, 5×10^5 MBT-2 cells were inoculated subcutaneously into the right hind flank of 6- to 8-week-old C3H mice or athymic nude mice (Charles River Laboratories, Wilmington, Mass.). For MC38 studies, 12-week old female C57BL/6 mice were inoculated with brei of MC38 tumors (in-vivo passage 6) into the right hind flank. For 4T1 studies, 7.5×10^5 4 T1 cells were inoculated subcutaneously into the right hind flank of 6- to 8-week-old female BALB/c mice or athymic nude mice (Charles River Laboratories). […] Mice were monitored for tumor growth and overt tolerability over the course of the experiment. […] Tumor volume was calculated using the formula (L×W^2)/2, where L and W refer to the length and width dimensions, respectively. Tumor growth inhibition (TGI) was calculated using the formula (1−(VT/VC))×100, where VT is the tumor volume of the treatment group on the last day of treatment, and VC is the tumor volume of the control group on the last day of treatment. […]
The activity of Compound 1 in sarcoma PDX models was evaluated as described in Example H for PDX models. […] Three mice per group were analyzed. […]

SMILES: CC(C)C(=O)N1CCC(c2cc(-c3ccc(NC(=O)c4cn(C(C)C)c(=O)n(-c5ccccn5)c4=O)cc3)c3c(N)ncnn23)CC1 [Compound 1, N-(4-(4-Amino-7-(1-isobutyrylpiperidin-4-yl)pyrrolo[1,2-f][1,2,4]triazin-5-yl)phenyl)-1-isopropyl-2,4-dioxo-3-(pyridin-2-yl)-1,2,3,4-tetrahydropyrimidine-5-carboxamide]
- IC50 (parental BAF3 cells): > 4 µM
- effect on macrophage-mediated suppression of T-cell proliferation ([1]; FIG. 5A): partially reversed macrophage-mediated suppression of T-cell proliferation
- IFN-γ production ([1]; macrophage/T-cell co-culture supernatant, FIG. 5B): increase in IFN-γ production
- TGI (%) (CTG-1861 tumors): 74%
